According to US8636983B2, “Aminoglycoside and fosfomycin combination for treatment of ventilator associated pneumonia (VAP) and ventilator associated tracheal (VAT) bronchitis” (priority 2011, dated 2014):
≈ marks a conversion by molar mass, not a printed value. Counter-ions that a name gives are not always drawn. Like-named read-outs stand apart in the source and are kept apart here.

Experiments:
[1] = pH and osmolality of amikacin starting material and solution; type: physicochemical; settings: starting material
Description: Amikacin Base, EP is compendial (Ph Eur) and is manufactured by ACS Dobfar S.p.a under DMF 13762. The API is manufactured in Bergamo, Italy. Fosfomycin Disodium is compendial (Ph Eur) and is manufactured by Ercros, S.A. under DMF 14341. The API is manufactured in Madrid, Spain. Rather than commercial amikacin sulfate, the amikacin base is the starting material. Amikacin base has a pH of approximately 11, and large amounts of HCl are required to neutralize the pH. In the two-part formulation (used to combine with equal volumes of 40 mg/mL fosfomycin to generate the final formulation of 50 mg/mL amikacin, 20 mg/mL fosfomycin), the amikacin 100 mg/mL solution has a final pH of 7.5-7.6 and has an osmolality of approximately 533 mOsmol/kg, of which only approximately 170 mOsmol/kg is due to the amikacin, the balance is from the chloride anion. This concentration of chloride anion provides the permeant anion that will prevent cough.
In contrast, the starting pH of amikacin sulfate is 3.5-5.5 and little or no HCl is needed to neutralize the pH of the solution. Note that in the Neiderman paper (supra) amikacin sulfate was delivered as an aerosol to patients with VAP, and bronchospasm was reported in some patients. […] As described above, a final formulation has an amikacin concentration of 50 mg/ml and chloride anion concentration of approximately 265 meq/liter. […]

[2] = in vivo; design: species or system beagle dogs; settings: both sexes, beagle, dog, delivered as combination antibiotic aerosol, 7-day treatment
Experimental: Aerosol concentrations were determined on Days 1 and 7.

[3] = tested on: Stenotrophomonas maltophilia; settings: Zhanel et al.; cited from earlier work
[4] = Aerosol particle size distribution (MMAD) in dog study; type: physicochemical; settings: analytical methods, eFlow Inline Nebulizer aerosol
[5] = tested on: Pseudomonas aeruginosa; settings: 1477 Pseudomonas aeruginosa isolates, Zhanel et al.; cited from earlier work
[6] = tested on: Acinetobacter baumannii; assay: MIC by CLSI agar dilution, amikacin-resistant A. baumannii strains (SENTRY); type: cell-based; settings: for MIC50: 21 A. baumannii isolates
Description: (§1) Sixty-two amikacin-resistant strains were selected from a worldwide antimicrobial surveillance collection (SENTRY), which contains 35,000 organisms from six continents (56/62 organisms collected in 2011).

[7] = in vivo; settings: dog; for Cmax: both, beagle
Experimental: A GLP (Good Laboratory Practice) study was performed using 24 beagle dogs allocated to four dose groups (three males and three females per group) and exposed to aerosol generated with the PARI Investigational eFlow® Inline Nebulizer System using a closed-faced mask fitted with a mouth tube. The aerosols contained either control (water for injection) in Group 1 or a combined formulation containing 50 mg/mL amikacin and 20 mg/mL fosfomycin pH adjusted with HCl for Groups 2 to 4. Aerosol concentrations were determined on Days 1 and 7. The treatment period was for seven days with termination of the dogs on Day 8.
Toxicokinetic parameters were estimated using WinNonlin pharmacokinetic software version 5.2.1 (Pharsight Corp.). A non-compartmental approach consistent with the extravascular route of administration was used for parameter estimation. All parameters were generated from individual amikacin and fosfomycin concentrations in plasma from Days 1 and 7.

[8] = tested on: Pseudomonas aeruginosa; assay: MIC by CLSI agar dilution, amikacin-resistant P. aeruginosa strains (SENTRY); type: cell-based; settings: 21 P. aeruginosa isolates
Description: as §1

[9] = clinical; settings: both, human, in vivo
Experimental: Adult patients having a clinical diagnosis of VAP, with a Gram-positive or Gram-negative organism in a tracheal aspirate sample were expected to be on mechanical ventilation for ≧3 days.
Each adult patient received 3 escalating doses of a mixture of 50 mg/mL amikacin and 20 mg/mL fosfomycin, with doses separated by 24±2 hours (Table 1).
All treatments were administered with a single patient, multi-treatment nebulizer (Investigational eFlow® Inline Nebulizer System; PARI Pharma GMBH, Starnberg, Germany), positioned in the inspiratory tubing between the ventilator and the patient. The nebulizer remained inline until all treatments were delivered.
A placebo: 0.9% normal saline, having a volume matched to the antibiotic dosing schedule was delivered via the PARI Investigational eFlow® Inline Nebulizer System in mechanically ventilated patients.
The eFlow® Inline Nebulizer System was positioned in the inspiratory tubing between the Puritan Bennett 840 Ventilator and the patient. Once in place, the nebulizer remained inline until all study-drug doses were delivered. Humidification continued during the nebulization of the formulation and the delivery of the entire dose.
Patients are male or female between 18 years and 80 years of age with clinical diagnosis of VAP or VAT, a Gram-positive or Gram-negative bacteria on Gram stain of the tracheal aspirate and were expected to be on mechanical ventilation for at least three days.

[10] = tested on: Klebsiella pneumoniae; assay: MIC by CLSI agar dilution, amikacin-resistant K. pneumoniae strains (SENTRY); type: cell-based; settings: 20 K. pneumoniae isolates
Description: as §1

[11] = tested on: 62 Gram-negative, amikacin-resistant pathogens; assay: MIC by CLSI agar dilution, all 62 amikacin-resistant isolates; type: cell-based; settings: for MIC50: All 62 isolates
Description: as §1

[12] = tested on: methicillin-resistant Staphylococcus aureus (MRSA); settings: 148 MRSA isolates, data from the 1980s; cited from earlier work
[13] = of water; cited from earlier work
[14] = inhaled; cited from earlier work
[15] = read-out: Median (MIC50) Amikacin MIC
[16] = read-out: Median (MIC50) Fosfomycin MIC

Q: Which pH [1] does the source give for NCC[C@H](O)C(=O)N[C@@H]1C[C@H](N)[C@@H](O[C@H]2O[C@H](CN)[C@@H](O)[C@H](O)[C@H]2O)[C@H](O)[C@H]1O[C@H]1O[C@H](CO)[C@@H](O)[C@H](N)[C@H]1O [Amikacin base] here?
A: approximately 11

Q: For NCC[C@H](O)C(=O)N[C@@H]1C[C@H](N)[C@@H](O[C@H]2O[C@H](CN)[C@@H](O)[C@H](O)[C@H]2O)[C@H](O)[C@H]1O[C@H]1O[C@H](CO)[C@@H](O)[C@H](N)[C@H]1O [Amikacin, amikacin], which NOAEL at 7 days [2] is on record?
A: 117 mg/kg/day

Q: What about the “MIC 90” value [3] of the same molecule?
A: > 64 µg/mL

Q: What about the “particle size distribution (MMAD)” value [4] of the same molecule?
A: 2.80 μm

Q: And the “MIC 90” value [5]?
A: 32 µg/mL (≈ 54.6 µM)

Q: What about the MIC ([6]; 5 A. baumannii isolates with high amikacin resistance) of the same molecule?
A: > 1020 µg/mL

Q: And the MIC50 [6, 15]?
A: 8 µg/mL (≈ 13.7 µM)

Q: And the Cmax [7]?
A: 13200 to 39300 ng/mL

Q: What about the “accumulation following repeat dosing” value [7] of the same molecule?
A: no clear indication of accumulation

Q: And the MIC50 [8, 15]?
A: 128 µg/mL (≈ 219 µM)

Q: And the Kp [9]?
A: > 2000

Q: What about the “Mean amikacin Cmax in tracheal aspirate, fold higher than MIC 90 for P. aeruginosa” value [9] of the same molecule?
A: ≥ 406 fold

Q: What about the “amikacin Cmax in tracheal aspirate, fold higher than MIC90 of P. aeruginosa” value [9] of the same molecule?
A: ≥ 89 fold

Q: And the MIC50 [10, 15]?
A: 256 µg/mL (≈ 437 µM)

Q: What about the MIC50 [11, 15] of the same molecule?
A: 128 µg/mL (≈ 219 µM)

Q: What about the “amikacin concentration required to inhibit all 62 isolates” value ([11]; FIG. 4) of the same molecule?
A: > 1024 µg/mL

Q: With C[C@@H]1O[C@@H]1P(=O)(O)O [Fosfomycin, fosfomycin] as the molecule, how does the “MIC 90” value [12] read?
A: 32 µg/mL (≈ 232 µM)

Q: And the NOAEL at 7 days [2]?
A: 47.5 mg/kg/day

Q: What about the “particle size distribution (MMAD)” value [4] of the same molecule?
A: 2.75 μm

Q: What about the MIC50 [6, 16] of the same molecule?
A: 205 µg/mL (≈ 1480 µM)

Q: And the Cmax [7]?
A: 8700 to 28700 ng/mL

Q: And the “accumulation following repeat dosing” value [7]?
A: no clear indication of accumulation

Q: And the MIC50 [8, 16]?
A: 51.2 µg/mL (≈ 371 µM)

Q: What about the Kp [9] of the same molecule?
A: > 2000

Q: And the “Mean fosfomycin Cmax in tracheal aspirate, fold higher than MIC 90 for MRSA” value [9]?
A: 281 fold

Q: What about the “fosfomycin Cmax in tracheal aspirate, fold higher than MIC 90 of MRSA” value [9] of the same molecule?
A: ≥ 54 fold

Q: And the “fosfomycin tracheal aspirate concentrations, fold above the MIC 90 for MRSA” value ([9]; 6 h)?
A: ≥ 2.2 fold

Q: And the MIC50 [10, 16]?
A: 25.6 µg/mL (≈ 185 µM)

Q: What about the MIC50 [11, 16] of the same molecule?
A: 51.2 µg/mL (≈ 371 µM)

Q: Which solubility [13] does the source give for C[C@@H]1O[C@@H]1P(=O)(O)O [disodium salt of fosfomycin, Fosfomycin disodium] here?
A: 50 mg/mL

Q: With NC[C@H]1O[C@H](O[C@H]2[C@H](O)[C@@H](O[C@H]3O[C@H](CO)[C@@H](O)[C@H](N)[C@H]3O)[C@H](N)C[C@@H]2N)[C@H](N)C[C@@H]1O [tobramycin] as the molecule, how does the airway half-life [14] read?
A: about 2 hours
